Data set [1] can be described thus: mn = molality of the nth substance listed, in mol/kg. Conditions: 278.15 K, 101.3 kPa, Liquid, m2 = 0; for speed of sound: Frequency=2 MHz, Linear variable-path acoustic interferometer; for mass density: Pycnometric method.
For data set [2] the following is noted: 278.15 K, 101.3 kPa, Liquid.

The results in this text go back to the NIST ThermoML archive (doi:10.1016/j.jct.2015.09.020).

± gives the expanded uncertainty stated by the source.

In the case of `O` [water] + Cl.NCC(=O)O, in data set [1], the speed of sound worked out at 1426.2 ± 1.7 m/s and the mass density came out at 999.96 ± 0.28 kg/m3.

Turning to `O` [water], the speed of sound in data set [2] (Frequency=2 MHz, Linear variable-path acoustic interferometer) was 1426.2 ± 1.7 m/s. In addition, the mass density in data set [2] (Pycnometric method) turned out to be 999.96 ± 0.28 kg/m3.

Regarding `O` [water] + NCCCC(=O)O, in data set [1], the speed of sound is 1426.2 ± 1.7 m/s and the mass density turned out to be 999.96 ± 0.28 kg/m3.

On to `O` [water] + N[C@@H](CCC(=O)[O-])C(=O)O.[Na+], for which, in data set [1], the speed of sound is on record as 1426.2 ± 1.7 m/s and the mass density is listed as 999.96 ± 0.29 kg/m3.
